Assay results published in patent US20240417387A1, “SULFONYLPIPERAZINYL COMPOUNDS FOR TREATMENT OF BACTERIAL INFECTIONS” (Hoffmann-La Roche Inc., priority 2021, published 2024).
In brackets after ≈: the same amount, converted by molar mass.

Tests used:
[1] = Human microsome stability assay; assay type: in vitro ADME; conditions: human liver microsomes 0.5 mg/mL, 37° C., pH 7.4, NADPH regenerating system
In short: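 Compound […] with 0.5 mg/mL human liver microsomal protein in 100 mM potassium phosphate pH 7.4, 10 min preincubation at 37 °C, started with NADPH regenerating system. Sampled 0–30 min, remaining compound by LC-MS/MS; clearance binned low <7, medium 7–16.2, high >16.2 mL/min/kg.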

[2] = target: Escherichia coli UDP-2,3-diacylglucosamine hydrolase (LpxH) (Escherichia coli (strain K12), UniProt P43341); assay: Enzymatic IC50 assay of Escherichia coli LpxH (UMP/CMP-Glo luminescence); assay type: biochemical; conditions: Enzymatic IC50 against Escherichia coli LpxH; read-out: IC50 (converted)
Chain of Escherichia coli UDP-2,3-diacylglucosamine hydrolase (LpxH) (P43341 whole entry): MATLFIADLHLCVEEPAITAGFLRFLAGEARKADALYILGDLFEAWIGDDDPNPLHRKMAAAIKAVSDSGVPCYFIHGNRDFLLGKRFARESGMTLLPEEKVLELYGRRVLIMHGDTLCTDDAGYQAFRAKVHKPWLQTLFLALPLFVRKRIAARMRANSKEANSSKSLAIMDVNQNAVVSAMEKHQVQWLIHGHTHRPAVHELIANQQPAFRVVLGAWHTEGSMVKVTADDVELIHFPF
In short: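 LpxH (2 nM) preincubated 10 min at room temperature with compound (100 μM to 1.7 nM) in Tris-HCl pH7.5 buffer with 2.5 mM MnCl2, then reacted with 5 μM UDP-DAG for 20 min. Reaction heat-stopped at 95° C.; released UMP converted to ATP and read by luciferase luminescence (UMP/CMP-Glo).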

[3] = test system: Escherichia coli BW 25113; assay: Minimal Inhibitory Concentration (MIC) broth dilution assay, E. coli BW 25113; assay type: cell-based; conditions: Escherichia coli, BW25113, 20 hours at 35° C., CAMHB, read-out: MIC E. coli K-12 BW 25113
In short: (§1)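 Broth microdilution with twofold compound series in cation-adjusted Mueller Hinton broth, inoculum 5×10^5 CFU/mL, applied to each strain. Plates incubated 20 h at 35 °C in ambient air. MIC […] recorded as the lowest concentration with no visible growth, read by eye.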

[4] = test system: Escherichia coli ATCC 25922; assay: Minimal Inhibitory Concentration (MIC) broth dilution assay, E. coli ATCC 25922; assay type: cell-based; conditions: Escherichia coli, ATCC25922, 20 h, read-out: MIC E. coli ATCC 25922
In short: as §1

[5] = test system: Klebsiella pneumonia ATCC 43816; assay: Minimal Inhibitory Concentration (MIC) broth dilution assay, K. pneumonia ATCC 43816; assay type: cell-based; conditions: Klebsiella pneumoniae, ATCC43816, 20 hours at 35° C., CAMHB, read-out: MIC K. p ATCC 43816
In short: as §1

[6] = test system: efflux-deficient Escherichia coli strains; conditions: reported in Bioorganic Chemistry (2020), 102, 104055; cited from earlier work
LPS synthesis pathway = conditions: reported in Bioorganic Chemistry (2020), 102, 104055; cited from earlier work

Structure (SMILES)	Clearance of Human microsome [1]	IC50 [2]	MIC [3]	MIC [4]	MIC [5]	antibiotic activity against efflux-deficient Escherichia coli strains [6]	LPS synthesis pathway inhibition activity (LPS synthesis pathway)
CC(=O)N1CCc2cc(S(=O)(=O)N3CCN(c4cc(Cl)cc(C(F)(F)F)c4)CC3)ccc21 [JH-LPH-33, reference compound]	20.94 mL/min/kg	293 nM	> 24 µg/mL	> 24 µg/mL	> 24 µg/mL	antibiotic activity	LPS synthesis pathway inhibition activity
N[C@@H]1CC(=O)N(c2ccc(S(=O)(=O)N3CCN(c4cc(C(F)(F)[C@H]5CC[C@H](C(=O)NNC(=O)C6CCNCC6)CC5)cc(Cl)n4)CC3)cc2)C1 [Example 051, Trans-N′-[4-[[2-chloro-6-[4-[4-[(4R)-4-amino-2-oxo-pyrrolidin-1-yl]phenyl]sulfonylpiperazin-1-yl]-4-pyridyl]-difluoro-methyl]cyclohexanecarbonyl]piperidine-4-carbohydrazide]	8.70 mL/min/kg	12.2 nM	2.3 µg/mL (≈ 3.12 µM)	4.6 µg/mL (≈ 6.24 µM)	4.6 µg/mL (≈ 6.24 µM)	–	–
NCC(O)CNC(=O)c1cnc(C(F)(F)c2cc(Cl)nc(N3CCN(S(=O)(=O)c4ccc(N5C[C@H](N)CC5=O)cc4)CC3)c2)cn1 (stereo partly drawn) [Example 022, N-(3-amino-2-hydroxy-propyl)-5-[[2-chloro-6-[4-[4-[(4R)-4-amino-2-oxo-pyrrolidin-1-yl]phenyl]sulfonylpiperazin-1-yl]-4-pyridyl]-difluoro-methyl]pyrazine-2-carboxamide]	6.15 mL/min/kg	5.88 nM	1.4 µg/mL (≈ 2.06 µM)	0.71 µg/mL (≈ 1.04 µM)	0.71 µg/mL (≈ 1.04 µM)	–	–
NCCCNC(=O)C1CC2C(C1)C2C(F)(F)c1cc(Cl)nc(N2CCN(S(=O)(=O)c3ccc(N4C[C@H](N)CC4=O)cc3)CC2)c1 (stereo partly drawn) [Example 055, N-(3-aminopropyl)-6-[[2-chloro-6-[4-[4-[(4R)-4-amino-2-oxo-pyrrolidin-1-yl]phenyl]sulfonylpiperazin-1-yl]-4-pyridyl]-difluoro-methyl]bicyclo[3.1.0]hexane-3-carboxamide]	8.58 mL/min/kg	9.01 nM	0.55 µg/mL (≈ 0.826 µM)	0.85 µg/mL (≈ 1.28 µM)	0.55 µg/mL (≈ 0.826 µM)	–	–
NC1CC(NC(=O)[C@H]2CC[C@H](C(F)(F)c3cc(Cl)nc(N4CCN(S(=O)(=O)c5ccc(N6C[C@H](N)CC6=O)cc5)CC4)c3)CC2)C1 (stereo partly drawn) [Example 007, Trans-N-(3-aminocyclobutyl)-4-[[2-chloro-6-[4-[4-[(4R)-4-amino-2-oxo-pyrrolidin-1-yl]phenyl]sulfonylpiperazin-1-yl]-4-pyridyl]-difluoro-methyl]cyclohexanecarboxamide]	6.90 mL/min/kg	7.35 nM	1.1 µg/mL (≈ 1.62 µM)	1.1 µg/mL (≈ 1.62 µM)	0.53 µg/mL (≈ 0.779 µM)	–	–
COC(CN)CNC(=O)[C@H]1CC[C@H](C(F)(F)c2cc(Cl)nc(N3CCN(S(=O)(=O)c4ccc(N5C[C@H](N)CC5=O)cc4)CC3)c2)CC1 (stereo partly drawn) [Example 076, Trans-N-(3-amino-2-methoxy-propyl)-4-[[2-chloro-6-[4-[4-[(4R)-4-amino-2-oxo-pyrrolidin-1-yl]phenyl]sulfonylpiperazin-1-yl]-4-pyridyl]-difluoro-methyl]cyclohexanecarboxamide]	9.06 mL/min/kg	< 2.86 nM	1.1 µg/mL (≈ 1.58 µM)	1.1 µg/mL (≈ 1.58 µM)	1.1 µg/mL (≈ 1.58 µM)	–	–
NCCCNC(=O)[C@H]1CC[C@H](C(F)(F)c2cc(Cl)nc(N3CCN(S(=O)(=O)c4ccc(N5C[C@@H](CO)OC5=O)cc4)CC3)c2)CC1 [Example 058, Trans-N-(3-aminopropyl)-4-[[2-chloro-6-[4-[4-[(5S)-5-(hydroxymethyl)-2-oxo-oxazolidin-3-yl]phenyl]sulfonylpiperazin-1-y1]-4-pyridyl]-difluoro-methyl]cyclohexanecarboxamide]	8.04 mL/min/kg	< 2.92 nM	0.29 µg/mL (≈ 0.423 µM)	1.1 µg/mL (≈ 1.61 µM)	1.1 µg/mL (≈ 1.61 µM)	–	–
N[C@@H]1C[C@H](N)CN(CCCNC(=O)[C@H]2CC[C@H](C(F)(F)c3cc(Cl)nc(N4CCN(S(=O)(=O)c5ccc(N6C[C@H](N)CC6=O)cc5)CC4)c3)CC2)C1 [Example 049, Trans-4-[[2-chloro-6-[4-[4-[(4R)-4-amino-2-oxo-pyrrolidin-1-yl]phenyl]sulfonylpiperazin-1-yl]-4-pyridyl]-difluoro-methyl]-N-[3-[cis-3,5-diamino-1-piperidyl]propyl]cyclohexanecarboxamide]	7.38 mL/min/kg	9.13 nM	0.6 µg/mL (≈ 0.783 µM)	1.2 µg/mL (≈ 1.57 µM)	1.2 µg/mL (≈ 1.57 µM)	–	–
N[C@@H]1CC(=O)N(c2ccc(S(=O)(=O)N3CCN(c4cc(C(F)(F)[C@H]5CC[C@H](C(=O)N6C[C@H](N)C[C@H](N)C6)CC5)cc(Cl)n4)CC3)cc2)C1 [Example 048, Trans-(4R)-4-amino-1-[4-[4-[6-chloro-4-[[4-cis-(3,5-diaminopiperidine-1-carbonyl)cyclohexyl]-difluoro-methyl]-2-pyridyl]piperazin-1-yl]sulfonylphenyl]pyrrolidin-2-one]	12.06 mL/min/kg	18.3 nM	1.2 µg/mL (≈ 1.69 µM)	1.2 µg/mL (≈ 1.69 µM)	1.2 µg/mL (≈ 1.69 µM)	–	–
N[C@@H]1CC(=O)N(c2ccc(S(=O)(=O)N3CCN(c4cc(C(F)(F)c5ccc(C(=O)NCCCNCCO)nc5)cc(Cl)n4)CC3)cc2)C1 [Example 039, 5-[[2-Chloro-6-[4-[4-[(4R)-4-amino-2-oxo-pyrrolidin-1-yl]phenyl]sulfonylpiperazin-1-yl]-4-pyridyl]-difluoro-methyl]-N-[3-(2-hydroxyethylamino)propyl]pyridine-2-carboxamide]	6.15 mL/min/kg	4.24 nM	0.82 µg/mL (≈ 1.16 µM)	1.6 µg/mL (≈ 2.26 µM)	1.6 µg/mL (≈ 2.26 µM)	–	–
NCCCNC(=O)[C@H]1CC[C@H](C(F)(F)c2cc(Cl)nc(N3CCN(S(=O)(=O)c4ccc(N5C[C@H](CO)OC5=O)cc4)CC3)c2)CC1 [Example 059, Trans-N-(3-aminopropyl)-4-[[2-chloro-6-[4-[4-[(5R)-5-(hydroxymethyl)-2-oxo-oxazolidin-3-yl]phenyl]sulfonylpiperazin-1-yl]-4-pyridyl]-difluoro-methyl]cyclohexanecarboxamide]	6.15 mL/min/kg	< 2.92 nM	1.2 µg/mL (≈ 1.75 µM)	1.2 µg/mL (≈ 1.75 µM)	1.2 µg/mL (≈ 1.75 µM)	–	–
CN(CCN)C(=O)[C@H]1CC[C@H](C(F)(F)c2cc(Cl)nc(N3CCN(S(=O)(=O)c4ccc(N5C[C@H](N)CC5=O)cc4)CC3)c2)CC1 [Example 030, Trans-N-(2-aminoethyl)-4-[[2-chloro-6-[4-[4-[(4R)-4-amino-2-oxo-pyrrolidin-1-yl]phenyl]sulfonylpiperazin-1-yl]-4-pyridyl]-difluoro-methyl]-N-methyl-cyclohexanecarboxamide]	6.90 mL/min/kg	8.98 nM	1.7 µg/mL (≈ 2.54 µM)	1.1 µg/mL (≈ 1.65 µM)	1.7 µg/mL (≈ 2.54 µM)	–	–
CN(C)CCCNC(=O)c1ccc(C(F)(F)c2cc(Cl)nc(N3CCN(S(=O)(=O)c4ccc(N5C[C@H](N)CC5=O)cc4)CC3)c2)nc1 [Example 027, 6-[[2-chloro-6-[4-[4-[(4R)-4-amino-2-oxo-pyrrolidin-1-yl]phenyl]sulfonylpiperazin-1-yl]-4-pyridyl]-difluoro-methyl]-N-[3-(dimethylamino)propyl]pyridine-3-carboxamide]	6.15 mL/min/kg	5.79 nM	1.6 µg/mL (≈ 2.31 µM)	3.2 µg/mL (≈ 4.63 µM)	3.2 µg/mL (≈ 4.63 µM)	–	–
